According to patent US7371780B2, “Use of calphostin C to treat drug-resistant tumor cells” (priority 2003, dated 2008):

What was measured:
[1] = test system: MCF-7 cells; assay: Clonogenic assay, MCF-7 cells; assay type: cell-based, human; conditions: 24 h drug, calphostin C light-activated 2 h, read-out: IC50 (concentration required to kill or inhibit the growth of 50% of cells)
Description: (§1) The breast cancer cell line MCF-7 (lot HTB-22) was obtained from the American […] (ATCC) and maintained in Dulbecco's H21 medium (MEM) supplemented with 10% Fetal Bovine Serum (FBS) (HyClone, Logan, Utah) in a humidified atmosphere containing 5% CO2 at 37° C. To establish drug resistant cell lines, MCF-7 cells were grown in the presence of either paclitaxel or doxorubicin, beginning at a concentration 1000-fold below that required to kill 50% of the cells (the IC50). The drug concentration was increased 3-fold every two weeks (two passages), with an aliquot of the cells removed for storage in liquid nitrogen before each increase in concentration. Dose escalation continued until all cells died, after which the cells able to tolerate the highest concentration of drug were thawed for subsequent study. In this way, paclitaxel-resistant (MCF-7TAX) and doxorubicin-resistant (MCF-7DOX) cell lines were established. The IC50 for each drug was determined using a clonogenic assay as outlined below. The drug resistant cells were kept in culture in the presence of the maximally tolerated drug dose. Before each experiment, the cell lines were grown for two days in the absence of drug after which fresh medium containing either calphostin C (Sigma Laboratories, Oakville, ON), doxorubicin (Adriamycin PFS®, USP, Mississauga, ON) or paclitaxel (Taxol, Bristol-Myers Squibb, Montreal, QC) was added at the concentrations indicated.
The sensitivity of MCF-7, MCF-7TAX and MCF-7DOX cells to calphostin C, paclitaxel or doxorubicin was determined using a clonogenic assay. Briefly, 2.5×10^5 cells were seeded into 25 cm^2 tissue culture flasks in Dulbecco's H21 medium supplemented with 10% FBS. The cells were allowed to grow overnight, after which the medium was removed and replaced with medium containing varying concentrations of paclitaxel, doxorubicin, or calphostin C (after 2 hours of light exposure to activate the molecule). […] The colonies present in 5 randomly selected fields were then counted by visual inspection. […]

[2] = test system: MCF-7TAX cells; assay: Flow cytometric sub-G1 DNA content, MCF-7TAX; assay type: cell-based, human; conditions: 100 nM calphostin C, 2 h light
Description: For flow cytometric analysis, cells at about 50% to 60% confluence were released from their flasks by trypsin treatment and washed with PBS. After centrifugation at 1000 rpm for 5 min, cells were then fixed by resuspension in 75% ethanol for 2 hours, collected by centrifugation, and resuspended in PI staining solution (see above) for 1 h. For each sample, approximately 2×10^4 cells were analyzed using a Beckman Coulter Epics® Elite flow cytometer. Fluorescence intensity upon stimulation with an argon-ion laser at 488 nm was measured using the PMT4 channel (625DL filter) and plotted against cell number. The percentage of cells with a sub-G1 DNA content was determined by the flow cytometer, adjusting the gates such that only cells with a fluorescence lower than the peak for untreated cells in G1 are counted (see FIG. 4).

[3] = mice, cited from earlier work
[4] = test system: MCF-7DOX cells; assay: Cytoplasmic shrinkage by hematoxylin/eosin staining, MCF-7DOX; assay type: cell-based, human
Description: For staining with hematoxylin and eosin, cells were grown in a six-well culture plate with each well containing a Snowcoat X-Tra™ microscope slide (Surgipath Laboratories, MB) immersed in 3 ml of H21 medium. When the cells reached 50% confluence, they were treated with 0-300 nM calphostin C, followed by a 2 hour exposure of the cultures to fluorescent light as described above. After light activation, the cells were placed in a 37° C. humidified incubator with 5% CO2 and incubated for an additional 22 hours. The cells were then stained with hematoxylin and eosin using a previously described procedure. Briefly, the media was removed from cell cultures and the cells that remained adhered to the slides were washed with PBS, fixed in formalin:acetone (1:2) for 2 min, and allowed to air dry for 10 min. After washing with distilled water, 250 μl of hematoxylin solution (BDH Chemicals, Toronto, ON) was placed on each slide and allowed to incubate with the cells for 5 min. The slides were then washed with distilled water, Scott's tap water (20 g MgSO4.7H2O, 1.5 g NaHCO3 in 1 L H2O), and a final wash with distilled water. The cells on the slides were then stained for 5 min in 250 μl of eosin solution (100 ml of 1% eosin, 10 ml of 1% phyloxine, 4 ml of glacial acetic acid, and 780 ml of 95% ethanol). The cells were then dehydrated by washing three times in 95% ethanol and twice in 100% ethanol. The small slide was then mounted on a standard microscope glass slide, and 10 randomly selected fields were viewed at 100× magnification and photographed. For each concentration of calphostin C, the total number of dead cells in each field was ascertained and expressed relative to the total number of cells in the field.

[5] = test system: MES-SA human uterine sarcoma cells; assay: Death and cytoplasmic vacuolization, MES-SA; assay type: cell-based; conditions: data not shown
[6] = test system: MCF-7DOX (doxorubicin-resistant) cells; assay: Clonogenic assay, MCF-7DOX cells; assay type: cell-based, human
Description: as §1
The sensitivity of MCF-7, MCF-7TAX and MCF-7DOX cells to calphostin C, paclitaxel or doxorubicin was determined using a clonogenic assay. Briefly, 2.5×10^5 cells were seeded into 25 cm^2 tissue culture flasks in Dulbecco's H21 medium supplemented with 10% FBS. The cells were allowed to grow overnight, after which the medium was removed and replaced with medium containing varying concentrations of paclitaxel, doxorubicin, or calphostin C (after 2 hours of light exposure to activate the molecule). After 24 hours, the medium (including any floating cells) was transferred to 14 ml screw-capped tubes and centrifuged at 1000 rpm for 10 min. The adherent cells were then released from their flasks by trypsin treatment and suspended in 10 ml of H21 medium. The cell suspension was transferred to the previous tube and all cells harvested by centrifugation. The cell pellet was washed one more time with drug-free medium and resuspended in 300 μl of normal growth medium containing FBS. The cells were then added to 2.7 ml of a methylcellulose solution. The methylcellulose medium was prepared by combining 70 ml of a 2.6% (w/v) methylcellulose solution [Shin-Etsu Chemical Co., Tokyo, Japan] in Iscove's medium (Princess Margaret Hospital, Toronto, ON) with 30 ml of FBS. Three ml syringes equipped with a 16-gauge needle were used for transferring the viscous medium. The mixture was vigorously vortexed for 10 s to ensure an even distribution of cells within the viscous medium. The vortexed samples were then allowed to sit for 30 min to remove air bubbles. A 1.2 ml aliquot of the cell suspension was then transferred to a 6-well plate and the cells allowed to grow until colonies of >50 cells were visible by light microscopy for the various cell lines in the absence of drug. The colonies present in 5 randomly selected fields were then counted by visual inspection.
Calphostin C (Sigma Laboratories, Oakville, ON) was prepared as a 100 μM stock solution in dimethylsulfoxide (Sigma Laboratories, Oakville, ON) and stored at −70° C. in 100 μl aliquots. […]

[7] = test system: MDA-MB231 human breast cancer cells; assay: Death and cytoplasmic vacuolization, MDA-MB231; assay type: cell-based; conditions: data not shown

**Q.** With `COc1c(C[C@@H](C)OC(=O)Oc2ccc(O)cc2)c2c3c(C[C@@H](C)OC(=O)c4ccccc4)c(OC)c(=O)c4c(O)cc(OC)c(c5c(OC)cc(O)c(c1=O)c52)c43` [calphostin C] as the molecule, how does the IC50 [1] read?
**A.** The IC50 was 0.0132 µM.

**Q.** What about the “time of strong increase in percentage of sub-G1 cells after treatment” value [2] of the same molecule?
**A.** Its value is 8 h.

**Q.** And the “clearance rate t1/2” value ([3]; 40 mg/kg)?
**A.** Its value is 1.52 h.

**Q.** And the “plasma concentration reached without significant cytotoxicity” value [3]?
**A.** Its value is 2900 nM.

**Q.** And the “concentration at which cytoplasmic shrinkage was first observed” value [4]?
**A.** Its value is 100 nM.

**Q.** And the “concentration required for complete cytoplasmic shrinkage” value [4]?
**A.** The value was 300 nM.

**Q.** And the “percentage of cells exhibiting cytoplasmic shrinkage” value ([4]; 25 nM calphostin C)?
**A.** Its value is “remained unchanged”.

**Q.** What about the “induction of death and cytoplasmic vacuolization” value [5] of the same molecule?
**A.** Its value is “induce both death and cytoplasmic vacuolization”.

**Q.** What about the IC50 ([6]; MCF-7DOX cells, 24 h drug, calphostin C light-activated 2 h) of the same molecule?
**A.** The IC50 was 0.0642 µM.

**Q.** What about the “fold resistance / lower sensitivity compared to MCF-7 cells” value ([6]; MCF-7DOX vs MCF-7) of the same molecule?
**A.** The value was “approximately 5 fold”.

**Q.** What about the “induction of death and cytoplasmic vacuolization” value [7] of the same molecule?
**A.** Its value is “induce both death and cytoplasmic vacuolization”.
